Structures are written as SMILES. Structures can show the parent of a compound that is named as a salt. Some results are limits rather than exact numbers.

This experiment deals with KHK (Homo sapiens (Human), UniProt P50053). In words: In Vitro KHK Enzyme Assay (HTMS).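 Also: primary screen measuring inhibition of KHK-catalysed conversion of D-fructose into fructose 1-phosphate.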 The format is biochemical. As to conditions: 200 μM fructose, 100 μM ATP, 2 nM KHK, 60 min at 25° C.; Fructose-1-P detected by high throughput mass spectrometry.
Sequence of KHK (P50053 whole entry): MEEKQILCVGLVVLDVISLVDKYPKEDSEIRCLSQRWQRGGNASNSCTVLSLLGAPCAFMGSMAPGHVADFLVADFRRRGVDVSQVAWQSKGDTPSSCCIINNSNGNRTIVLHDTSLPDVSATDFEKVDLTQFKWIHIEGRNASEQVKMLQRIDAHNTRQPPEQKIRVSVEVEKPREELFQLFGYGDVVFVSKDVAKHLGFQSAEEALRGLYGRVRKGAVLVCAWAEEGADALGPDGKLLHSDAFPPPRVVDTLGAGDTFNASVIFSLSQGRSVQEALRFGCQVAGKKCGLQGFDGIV
On to `CCc1nn(-c2ccccc2)c2cc(N3CC4CNCC4C3)ccc12` (centres unmarked) [Compound 50, 3-Ethyl-6-(hexahydropyrrolo[3,4-c]pyrrol-2(1H)-yl)-1-phenyl-1H-indazolehydrochloride], for which the IC50 (usually the concentration that inhibits the measured activity by half) turned out to be 5360 nM.
`CSc1nn(-c2ccccc2)c2cc(C(=O)CC3CCCN3)ccc12` (centres unmarked) [Compound 163, 1-(3-Methylsulfanyl-1-phenyl-1H-indazol-6-yl)-2-pyrrolidin-2-yl-ethanone] gave an IC50 of 8280 nM.
For `CSc1nn(-c2ccccc2)c2cc(NC(=O)c3ccncc3)ccc12` [Compound 8, N-(3-Methylsulfanyl-1-phenyl-1H-indazol-6-yl)-isonicotinamide], the concentration for half-maximal inhibition (IC50) turned out to be 1010 nM.
On to `CSc1nn(-c2ccccc2)c2cc(-c3ccncc3)ccc12` [Compound 164, 3-Methylsulfanyl-1-phenyl-6-pyridin-4-yl-1H-indazole], for which the IC50 was greater than 10000 nM.
In the case of `CSc1nn(-c2ccccc2)c2cc(C=Cc3ccccn3)ccc12` [Compound 155, 3-Methylsulfanyl-1-phenyl-6-(2-pyridin-2-yl-vinyl)-1H-indazole] it was greater than 10000 nM; in that of `CSc1nn(-c2ccccc2)c2cc(NC(=O)C3(F)CCNCC3)ccc12` [Compound 167, 4-Fluoro-piperidine-4-carboxylic acid (3-methylsulfanyl-1-phenyl-1H-indazol-6-yl)-amide], 660 nM.
With `Cc1nn(-c2ccccc2)c2nc(C3CCN(C(=O)C4CCNCC4)CC3)nc(O)c12` [Compound 87, [4-(4-Hydroxy-3-methyl-1-phenyl-1H-pyrazolo[3,4-d]pyrimidin-6-yl)-piperidin-1-yl]-piperidin-4-yl-methanone hydrochloride], the IC50 is greater than 30000 nM.
In the case of `Cc1nn(-c2ccccc2)c2cc(N3CCN(C4CNC4)CC3)ccc12` [Compound 62, 6-(4-(Azetidin-3-yl)piperazin-1-yl)-3-methyl-1-phenyl-1H-indazole hydrochloride] it was 1600 nM; in that of `CCOc1cc(-c2ccc(N3CC(C)NC(C)C3)cc2)nc2c1c(CC)nn2-c1ccccc1` (centres unmarked) [Compound 104, 6-[4-(3,5-Dimethyl-piperazin-1-yl)-phenyl]-4-ethoxy-3-ethyl-1-phenyl-1H-pyrazolo[3,4-b]pyridine], 14700 nM; in that of `CSc1nn(-c2ccccc2)c2cc(C(O)c3ccncc3)ccc12` (centres unmarked) [Compound 137, (3-Methylsulfanyl-1-phenyl-1H-indazol-6-yl)-pyridin-4-yl-methanol], greater than 2000 nM.
Under `Cc1nn(-c2ccccc2)c2cc(NC(=O)c3ccc4[nH]cnc4c3)ccc12` [Compound 66, N-(3-methyl-1-phenyl-1H-indazol-6-yl)-1H-benzo[d]imidazole-5-carboxamide] stands 160 nM; under `COc1ccc(-n2nc(SC)c3ccc(C(=O)c4ccc5ncn(C)c5c4)cc32)cc1` [Compound 173, [1-(4-Methoxy-phenyl)-3-methylsulfanyl-1H-indazol-6-yl]-(3-methyl-3H-benzoimidazol-5-yl)-methanone], greater than 10000 nM; under `CSc1nn(-c2ccccc2)c2cc(NC3CCNCC3)ccc12` [Compound 109, (3-Methylsulfanyl-1-phenyl-1H-indazol-6-yl)-piperidin-4-yl-amine], 770 nM.
Under `CSc1nn(-c2ccc(N)cc2)c2cc(C3=CCNCC3)ccc12` [Compound 116, 4-[3-Methylsulfanyl-6-(1,2,3,6-tetrahydro-pyridin-4-yl)-indazol-1-yl]-phenylamine] stands 160 nM; under `CCc1nn(-c2ccccc2)c2cc(-c3ccc(OC4CCNCC4)cc3)ccc12` [Compound 37, 3-Ethyl-1-phenyl-6-(4-(piperidin-4-yloxy)phenyl)-1H-indazole hydrochloride], 5870 nM.
As for `CSc1nn(-c2ccccc2)c2cc(C=Cn3cncn3)ccc12` [Compound 152, 3-Methylsulfanyl-1-phenyl-6-(2-[1,2,4]triazol-1-yl-vinyl)-1H-indazole], the IC50 was greater than 10000 nM.
Under `COc1nn(-c2ccccc2)c2cc(-c3ccc(N4CCNCC4)cc3)ccc12` [Compound 78, 3-Methoxy-1-phenyl-6-(4-(piperazin-1-yl)phenyl)-1H-indazole hydrochloride] stands 4420 nM; under `CSc1nn(-c2ccccc2)c2cc(C(=O)CC3CCCNC3)ccc12` (centres unmarked) [Compound 161, 1-(3-Methylsulfanyl-1-phenyl-1H-indazol-6-yl)-2-piperidin-3-yl-ethanone], 6620 nM.
`Cc1nn(-c2ccccc2)c2nc(C3CCCN(C4CNC4)C3)nc(O)c12` (centres unmarked) [Compound 85, 6-(1-Azetidin-3-yl-piperidin-3-yl)-3-methyl-1-phenyl-1H-pyrazolo[3,4-d]pyrimidin-4-ol] showed a concentration for half-maximal inhibition (IC50) of 7450 nM.
In the case of `CSc1nn(-c2ccccc2)c2cc(N3CCN(Cc4cccnc4)CC3)ccc12` [Compound 32, 3-(Methylthio)-1-phenyl-6-(4-(pyridin-3-ylmethyl)piperazin-1-yl)-1H-indazole hydrochloride] it was 6060 nM; in that of `Cc1nn(-c2ccccc2)c2cc(N3CCNC(C)C3)ccc12` (centres unmarked) [Compound 71, 3-Methyl-6-(3-methylpiperazin-1-yl)-1-phenyl-1H-indazole formic acid salt], 400 nM.
Under `CSc1nn(-c2ccccc2)c2cc(C=CC3CCNCC3)ccc12` [Compound 153, 3-Methylsulfanyl-1-phenyl-6-(2-piperidin-4-yl-vinyl)-1H-indazole] stands 400 nM; under `CSc1nn(-c2ccccc2)c2cc(N3CCN(C4CCNCC4)CC3)ccc12` [Compound 23, 3-(Methylthio)-1-phenyl-6-(4-(piperidin-4-yl)piperazin-1-yl)-1H-indazole hydrochloride], 680 nM; under `CSc1nn(-c2ccccc2)c2cc(C=Cc3ccncc3)ccc12` [Compound 154, 3-Methylsulfanyl-1-phenyl-6-(2-pyridin-4-yl-vinyl)-1H-indazole], greater than 10000 nM.
In the case of `CCc1nn(-c2ccccc2)c2cc(N3CCN(C4CCNC4)CC3)ccc12` (centres unmarked) [Compound 45, 3-Ethyl-1-phenyl-6-(4-(pyrrolidin-3-yl)piperazin-1-yl)-1H-indazole hydrochloride] it was 2060 nM; in that of `CSc1nn(-c2ccccc2)c2cc(N3CCN(C(=O)C4CCCNC4)CC3)ccc12` (centres unmarked) [Compound 16, 4-(3-Methylsulfanyl-1-phenyl-1H-indazol-6-yl)-piperazin-1-yl]-piperidin-3-yl-methanone hydrochloride], 2890 nM.
As for `Cc1nn(-c2ccccc2)c2nc(C3CCN(c4cccnc4)CC3)nc(O)c12` [Compound 84, 3-Methyl-1-phenyl-6-(3,4,5,6-tetrahydro-2H-[1,3′]bipyridinyl-4-yl)-1H-pyrazolo[3,4-d]pyrimidin-4-ol], the IC50 was greater than 30000 nM.
In the case of `CSc1nn(-c2ccc(N)cc2)c2cc(CN3CCNCC3)ccc12` [Compound 115, 4-(3-Methylsulfanyl-6-piperazin-1-ylmethyl-indazol-1-yl)-phenylamine] it was greater than 51000 nM; in that of `CSc1nn(-c2ccccc2)c2cc(NC(=O)Cc3ccncc3)ccc12` [Compound 9, N-(3-(Methylthio)-1-phenyl-1H-indazol-6-yl)-2-(pyridin-4-yl)acetamide], 2680 nM.
Under `CSc1nn(-c2ccccc2)c2cc(N3CCN(Cc4ccncc4)CC3)ccc12` [Compound 18, 3-Methylsulfanyl-1-phenyl-6-(4-pyridin-4-ylmethyl-piperazin-1-yl)-1H-indazole Hydrochloride] stands 2030 nM; under `CSc1nn(-c2ccc([N+](=O)[O-])cc2)c2cc(CN3CCNCC3)ccc12` [Compound 130, 3-Methylsulfanyl-1-(4-nitro-phenyl)-6-piperazin-1-ylmethyl-1H-indazole], 44900 nM.
Consider `CCc1nn(-c2ccccc2)c2cc(-c3ccc(N4CCNCC4)cc3)ccc12` [Compound 52, 3-Ethyl-1-phenyl-6-(4-(piperazin-1-yl)phenyl)-1H-indazole hydrochloride], for which the midpoint of inhibition, the IC50, lay at 9800 nM.
The molecule `COc1ccc(-n2nc(SC)c3ccc(N4CCN(C5CCNCC5)CC4)cc32)cc1` [Compound 106, 1-(4-Methoxy-phenyl)-3-methylsulfanyl-6-(4-piperidin-4-yl-piperazin-1-yl)-1H-indazole] returned an IC50 of 360 nM.
Under `CCOc1cc(-c2ccc(N3CCNCC3)cc2)nc2c1c(CC)nn2-c1ccccc1` [Compound 102, 4-Ethoxy-3-ethyl-1-phenyl-6-(4-piperazin-1-yl-phenyl)-1H-pyrazolo[3,4-b]pyridine] stands 1430 nM.
Under `CSc1nn(-c2ccc([N+](=O)[O-])cc2)c2cc(C(=O)NC3CCNCC3)ccc12` [Compound 110, 3-Methylsulfanyl-1-(4-nitro-phenyl)-1H-indazole-6-carboxylic acid piperidin-4-ylamide] stands 9830 nM; under `CSc1nn(-c2ccc(F)cc2)c2cc(C3=CCNCC3)ccc12` [Compound 139, 1-(4-Fluoro-phenyl)-3-methylsulfanyl-6-(1,2,3,6-tetrahydro-pyridin-4-yl)-1H-indazole], 230 nM; under `CCc1nn(-c2ccccc2)c2cc(N3CCN(c4ccncc4)CC3)ccc12` [Compound 47, 3-Ethyl-1-phenyl-6-(4-(pyridin-4-yl)piperazin-1-yl)-1H-indazole hydrochloride], 3510 nM.
In the case of `Cc1nn(-c2ccccc2)c2cc(N3CCN(C4CCNCC4)C3=O)ccc12` [Compound 67, 1-(3-Methyl-1-phenyl-1H-indazol-6-yl)-3-(piperidin-4-yl)imidazolidin-2-one hydrochloride] it was 1230 nM.
On to `CCc1nn(-c2ccccc2)c2cc(OC3CN(C4CCNCC4)C3)ccc12` [Compound 41, 3-Ethyl-1-phenyl-6-(1-(piperidin-4-yl)azetidin-3-yloxy)-1H-indazole hydrochloride], for which the half-maximal inhibitory concentration (IC50) was greater than 30000 nM.
In the case of `CSc1nn(-c2ccccc2)c2cc(NC(=O)C3CNC3)ccc12` [Compound 2, N-(3-(Methylthio)-1-phenyl-1H-indazol-6-yl)azetidine-3-carboxamide hydrochloride] it was 220 nM.
Under `CSc1nn(-c2ccccc2)c2cc(NC(=O)C3(N)CCNCC3)ccc12` [Compound 157, 4-Amino-piperidine-4-carboxylic acid (3-methylsulfanyl-1-phenyl-1H-indazol-6-yl)-amide] stands 300 nM.
